row,SMILES,melting point [°C]
1,CC(C)n1cc(C(=O)Nc2ncc(Cl)s2)c2ccc(Cl)cc21,252 to 253
2,COc1ccc2c(C(=O)Nc3nccs3)cn(C(C)C)c2c1,182 to 185
3,Cc1ccc(NC(=O)c2cn(C(C)C)c3cc(Cl)ccc23)nc1,132 to 134
4,CC(C)n1cc(C(=O)Nc2ncc(Br)s2)c2ccc(Cl)cc21,240 to 242
5,CCn1cc(C(=O)Nc2nccs2)c2ccc(Cl)cc21,234 to 236
6,CC(C)n1cc(C(=O)Nc2ccc(Cl)cn2)c2ccc(Cl)cc21,131 to 134
7,CC(C)n1cc(C(=O)Nc2nccs2)c2ccc(Br)cc21,205 to 207
8,CC(C)n1cc(C(=O)Nc2nccs2)c2ccc(C(F)(F)F)cc21,246 to 247
9,CC(C)n1cc(C(=O)Nc2nccs2)c2ccc([N+](=O)[O-])cc21,236 to 239
10,Cc1cnc(NC(=O)c2cn(C(C)C)c3cc(Cl)ccc23)s1,216 to 219
11,CSc1ccc2c(C(=O)Nc3nccs3)cn(C(C)C)c2c1,172 to 176
12,CC(C)CCn1cc(C(=O)Nc2nccs2)c2ccc(Cl)cc21,179 to 180
13,CC(C)n1cc(C(=O)Nc2nccs2)c2ccc(F)cc21,203 to 204
14,Cc1ccc2c(C(=O)Nc3nccs3)cn(C(C)C)c2c1,215 to 217
15,CC(C)n1cc(C(=O)Nc2nncs2)c2ccc(Cl)cc21,274 to 275
16,CC(C)Cn1cc(C(=O)Nc2nccs2)c2ccc(Cl)cc21,200 to 202
17,CC(C)n1cc(C(=O)Nc2ccccn2)c2ccc(Cl)cc21,149 to 150

# Now from value to compound:
row,melting point [°C],SMILES
1,139 to 141,CCCCCn1cc(C(=O)Nc2nccs2)c2ccc(Cl)cc21
2,175 to 176,CCCn1cc(C(=O)Nc2nccs2)c2ccc(Cl)cc21
3,65 to 75,CCOC(=O)Cc1csc(NC(=O)c2cn(C(C)C)c3cc(Cl)ccc23)n1
4,179 to 181,CC(C)n1cc(C(=O)Nc2ccc(C(F)(F)F)cn2)c2ccc(Cl)cc21
5,239 to 241,CC(C)n1cc(C(=O)Nc2nccs2)c2ccc(O)cc21
6,247 to 249,CC(C)n1cc(C(=O)Nc2nccs2)c2ccc(S(C)(=O)=O)cc21
7,185 to 187,O=C(Nc1nccs1)c1cn(CC2CC2)c2cc(Cl)ccc12
8,117 to 119,O=C(Nc1nccs1)c1cn(CC2CCCC2)c2cc(Cl)ccc12
9,181 to 183,O=C(Nc1nccs1)c1cn(CC2CCCCC2)c2cc(Cl)ccc12
10,168 to 169,CCCCn1cc(C(=O)Nc2nccs2)c2ccc(Cl)cc21
11,57 to 64,CC(C)n1cc(C(=O)Nc2ccc(Br)cn2)c2ccc(Cl)cc21
12,202 to 204,CC(C)n1cc(C(=O)Nc2nccs2)c2ccc(Cl)cc21
13,169 to 173,O=C(Nc1nccs1)c1cn(CC2CCC2)c2cc(Cl)ccc12
14,201 to 203,Cc1csc(NC(=O)c2cn(C(C)C)c3cc(Cl)ccc23)n1

# Source: US6881844B2, “Indole-3-carboxamides as glucokinase activators” (Hoffman-La Roche Inc., priority 2002, dated 2005)
